Source: US8952034B2, “Fused heterocyclic compounds as ion channel modulators” (Gilead Sciences, Inc., priority 2009, dated 2015)

Molecular target: wild-type human cardiac sodium channel, hNav1.5 (Homo sapiens, UniProt Q14524)
Assay: Late INa screening assay (automated whole cell patch clamp, PatchXpress)
Type: cell-based
Details: HEK293 cells expressing hNav1.5, late INa generated with 10 μM Tefluthrin (or 50 nM ATX II); for inhibition at 1 µM: compound at 1 μM, read-out: LateINa_1 uM (percent block of late INa); for inhibition at 10 µM: compound at 10 μM, read-out: LateINa_10 uM (percent block of late INa)
Procedure, shortened: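 Late sodium current through wild-type human hNav1.5 stably expressed in HEK293 cells (no beta subunits) was recorded by automated whole-cell patch clamp on a PatchXpress 7000A at 24-27° C. Late INa was induced with 10 μM Tefluthrin or 50 nM ATX II. Cells were stepped from −120 mV to −20 mV for 250 ms at 0.1 Hz, and percent block was normalized to current in Na-free extracellular solution.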

Chain of wild-type human cardiac sodium channel, hNav1.5 (Q14524 whole entry): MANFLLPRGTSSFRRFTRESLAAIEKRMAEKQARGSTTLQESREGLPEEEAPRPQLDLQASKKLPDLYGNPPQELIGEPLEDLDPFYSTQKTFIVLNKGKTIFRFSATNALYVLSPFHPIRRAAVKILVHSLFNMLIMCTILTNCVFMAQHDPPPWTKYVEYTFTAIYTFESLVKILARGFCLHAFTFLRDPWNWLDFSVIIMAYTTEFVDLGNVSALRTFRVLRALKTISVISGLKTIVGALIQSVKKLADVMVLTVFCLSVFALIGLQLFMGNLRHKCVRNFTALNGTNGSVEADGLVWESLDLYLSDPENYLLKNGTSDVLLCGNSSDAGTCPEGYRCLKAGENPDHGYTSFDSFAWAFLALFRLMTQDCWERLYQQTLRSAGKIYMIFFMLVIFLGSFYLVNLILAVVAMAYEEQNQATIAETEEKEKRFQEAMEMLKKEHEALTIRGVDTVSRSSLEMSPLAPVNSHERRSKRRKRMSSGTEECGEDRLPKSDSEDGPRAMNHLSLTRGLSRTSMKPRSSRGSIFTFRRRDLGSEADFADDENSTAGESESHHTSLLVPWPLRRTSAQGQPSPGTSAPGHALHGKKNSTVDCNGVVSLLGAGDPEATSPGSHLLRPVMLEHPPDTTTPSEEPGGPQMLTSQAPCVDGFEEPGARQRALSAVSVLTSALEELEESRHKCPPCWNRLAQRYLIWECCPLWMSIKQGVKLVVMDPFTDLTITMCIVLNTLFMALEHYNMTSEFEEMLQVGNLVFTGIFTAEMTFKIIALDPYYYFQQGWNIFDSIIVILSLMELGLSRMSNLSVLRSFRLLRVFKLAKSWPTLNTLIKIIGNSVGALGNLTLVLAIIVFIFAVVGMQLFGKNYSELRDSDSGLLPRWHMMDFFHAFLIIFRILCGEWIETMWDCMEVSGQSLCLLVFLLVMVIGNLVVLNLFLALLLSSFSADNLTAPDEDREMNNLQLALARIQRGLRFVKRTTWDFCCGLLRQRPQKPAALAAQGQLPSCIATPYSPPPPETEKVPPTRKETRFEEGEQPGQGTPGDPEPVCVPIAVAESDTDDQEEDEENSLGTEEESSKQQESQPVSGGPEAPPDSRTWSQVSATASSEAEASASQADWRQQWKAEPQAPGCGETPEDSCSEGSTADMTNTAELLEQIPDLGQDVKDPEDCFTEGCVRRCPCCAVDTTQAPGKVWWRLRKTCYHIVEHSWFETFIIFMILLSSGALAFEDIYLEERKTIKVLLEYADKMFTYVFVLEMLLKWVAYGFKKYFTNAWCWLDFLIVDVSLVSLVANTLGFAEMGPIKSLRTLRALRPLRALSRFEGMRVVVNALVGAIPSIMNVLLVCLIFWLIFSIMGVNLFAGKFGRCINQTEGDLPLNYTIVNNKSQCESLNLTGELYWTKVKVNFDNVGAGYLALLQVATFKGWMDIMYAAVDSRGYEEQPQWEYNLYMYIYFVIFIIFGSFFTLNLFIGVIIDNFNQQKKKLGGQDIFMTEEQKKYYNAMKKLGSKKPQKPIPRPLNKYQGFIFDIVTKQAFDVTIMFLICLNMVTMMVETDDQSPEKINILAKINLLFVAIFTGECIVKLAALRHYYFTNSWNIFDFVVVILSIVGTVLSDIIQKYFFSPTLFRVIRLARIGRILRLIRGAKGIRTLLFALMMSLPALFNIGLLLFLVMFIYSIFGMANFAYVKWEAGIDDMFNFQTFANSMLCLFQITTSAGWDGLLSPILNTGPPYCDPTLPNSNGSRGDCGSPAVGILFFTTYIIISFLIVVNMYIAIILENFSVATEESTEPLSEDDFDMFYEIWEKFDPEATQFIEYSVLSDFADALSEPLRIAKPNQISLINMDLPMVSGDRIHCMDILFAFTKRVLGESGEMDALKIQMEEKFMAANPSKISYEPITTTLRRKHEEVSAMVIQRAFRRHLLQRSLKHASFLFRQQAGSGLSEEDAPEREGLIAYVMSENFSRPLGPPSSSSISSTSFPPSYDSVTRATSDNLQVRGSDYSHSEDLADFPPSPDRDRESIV

FC(F)(F)Oc1ccc(-c2ccc3nnc(C(F)(F)OCc4noc(-c5ccccc5)n4)n3c2)cc1 [BHN-323, 3-{difluoro[(5-phenyl-1,2,4-oxadiazol-3-yl)methoxy]methyl}-6-[4-(trifluoromethoxy)phenyl][1,2,4]triazolo[4,3-a]pyridine]
inhibition at 1 µM: 73%

FC(F)(F)COc1ccc(-c2ccc3nnc(C(F)(F)OCc4cc(-c5ccccc5)on4)n3c2)cn1 [BHN-324, 3-{difluoro[(5-phenyl-1,2-oxazol-3-yl)methoxy]methyl}-6-[6-(2,2,2-trifluoroethoxy)pyridin-3-yl][1,2,4]triazolo[4,3-a]pyridine]
inhibition at 1 µM: 46.3%

FC(F)(F)Oc1ccc(-c2ccc3nnc(C(F)(F)OCc4ccccc4-c4ccc(C5CC5)nc4)n3c2)cc1 [BHN-325, 3-[{[2-(6-cyclopropylpyridin-3-yl)benzyl]oxy}(difluoro)methyl]-6-[4-(trifluoromethoxy)phenyl][1,2,4]triazolo[4,3-a]pyridine]
inhibition at 1 µM: 68.3%

FC(F)(F)Oc1ccc(-c2ccc3nnc(C(F)(F)OCc4cc(-c5ccccc5Cl)on4)n3c2)cc1 [BHN-326, 3-[{[5-(2-chlorophenyl)-1,2-oxazol-3-yl]methoxy}(difluoro)methyl]-6-[4-(trifluoromethoxy)phenyl][1,2,4]triazolo[4,3-a]pyridine]
inhibition at 1 µM: 52.4%

FC(F)(F)Oc1ccc(-c2ccc3nnc(C(F)(F)OCc4ccccc4-c4cccnc4)n3c2)cc1 [BHN-327, 3-(difluoro{[2-(pyridin-3-yl)benzyl]oxy}methyl)-6-[4-(trifluoromethoxy)phenyl][1,2,4]triazolo[4,3-a]pyridine]
inhibition at 1 µM: 54.2%

FC(F)(F)Oc1ccc(-c2ccc3nnc(C(F)(F)OCc4ccccc4-n4cccn4)n3c2)cc1 [BHN-328, 3-(difluoro{[2-(1H-pyrazol-1-yl)benzyl]oxy}methyl)-6-[4-(trifluoromethoxy)phenyl][1,2,4]triazolo[4,3-a]pyridine]
inhibition at 1 µM: 70.9%

CCNc1nnc2ccc(-c3ccc(OC(F)(F)F)cc3)cn12 [BHN-331, N-ethyl-6-[4-(trifluoromethoxy)phenyl][1,2,4]triazolo[4,3-a]pyridin-3-amine]
inhibition at 10 µM: 38.2%

FC(F)(F)c1nnc2ccc(-c3ccc(Oc4ccccc4)cc3)cn12 [BHN-332, 6-(4-phenoxyphenyl)-3-(trifluoromethyl)[1,2,4]triazolo[4,3-a]pyridine]
inhibition at 10 µM: 83.5%

Cc1nnc2ccc(-c3ccc(Oc4ccccc4)cc3)cn12 [BHN-333, 3-methyl-6-(4-phenoxyphenyl)[1,2,4]triazolo[4,3-a]pyridine]
inhibition at 10 µM: 61.6%

CCNc1nnc2ccc(-c3ccc(Oc4ccccc4)cc3)cn12 [BHN-334, N-ethyl-6-(4-phenoxyphenyl)[1,2,4]triazolo[4,3-a]pyridin-3-amine]
inhibition at 10 µM: 40.6%

FC(F)(F)Oc1ccc(-c2ccc3nnc(C(F)(F)F)n3c2)cc1 [BHN-335, 6-[4-(trifluoromethoxy)phenyl]-3-(trifluoromethyl)[1,2,4]triazolo[4,3-a]pyridine]
inhibition at 10 µM: 87.7%

c1ccc(Oc2cccc(-c3ccc4ncnn4c3)c2)cc1 [BHN-347, 6-(3-phenoxyphenyl)[1,2,4]triazolo[1,5-a]pyridine]
inhibition at 10 µM: 73.6%

Cc1nc2ccc(-c3cccc(Oc4ccccc4)c3)cn2n1 [BHN-348, 2-methyl-6-(3-phenoxyphenyl)[1,2,4]triazolo[1,5-a]pyridine]
inhibition at 10 µM: 65.7%

Cc1cc(-c2ccc(Oc3ccccc3)cc2)cn2ncnc12 [BHN-349, 8-methyl-6-(4-phenoxyphenyl)[1,2,4]triazolo[1,5-a]pyridine]
inhibition at 10 µM: 65.1%

Cc1c(-c2ccc(C(F)(F)F)cc2)ccc2ncnn12 [BHN-350, 5-methyl-6-[4-(trifluoromethyl)phenyl][1,2,4]triazolo[1,5-a]pyridine]
inhibition at 10 µM: 44.5%
